# Marks after values point to notes of the source that are not given here.
# Key:
# U-87 MG cells [1] = assay: U-87 MG cell number (count & viability) after docetaxel treatment; format: cell-based; details: 25 nM docetaxel, 72 hours, vs vehicle control, not significant
# Description: (§1) U-87 MG cells may be plated at a density of 8×10^5 cells/150-mm dish. 48 hours after plating, cells may be treated with vehicle control or 25 nM docetaxel for 72 hours. At the end of treatment, cells may be harvested by trypsinization, and an aliquot of live/unfixed cells may be used to determine cell number, PS externalization, and caspase-3/7 activity using a cell analyzer. Remaining cells may be fixed for cell cycle analysis using a cell analyzer and DNA fragmentation analysis by BD LSRII Flow Cytometry as described below.
# (§2) U-87 MG cells harvested by trypsinization may be pooled with media plus washes and pelleted by centrifugation. The cells may be re-suspended in complete media diluted 1:10 with PBS (1% FBS/PBS). For determination of count and viability, an aliquot of the cell suspension may be diluted 1:10 with a count & viability reagent, which differentially stains viable and non-viable cells based on their permeability to two DNA binding dyes, and incubated for 5 minutes in the dark at room temperature according to manufacturer's protocol. For detection of phosphatidylserine (PS) externalization, an aliquot of cell suspension appropriately diluted in 1% FBS/PBS may be mixed 1:1 with an Annexin V & dead cell reagent and incubated for 20 minutes in the dark at room temperature according to manufacturer's protocol. […]
# U-87 MG cells [2] = details: 25 nM, 72 hours; "has been shown"; cited from earlier work
# U-87 MG cells [3] = assay: PS externalization (Annexin V staining) in U-87 MG cells; format: cell-based; details: 25 nM, 72 hours, vs vehicle control
# Description: as §1, §2
# U-87 MG cells [4] = assay: Cell cycle analysis of U-87 MG cells (cell cycle reagent, propidium iodide); format: cell-based; details: 25 nM, 72 hour treatment; proportion of cells in cell cycle phase, mean±SD, n=3
# Description: as §1
# Cleavage by active caspase-3/7 releases the dye within the cell and results in translocation to the nucleus, binding to DNA and high fluorescence. For cell cycle analysis, an ethanol-fixed cell suspension may be obtained by taking an aliquot of cell suspension, pelleting by centrifugation, resuspending in PBS, and fixing in 70% ethanol at −20° C. Fixed cells may be washed in PBS/0.2% BSA, pelleted by centrifugation, resuspended in a cell cycle reagent, and incubated for 30 minutes in the dark at room temperature according to manufacturer's protocol. A cell cycle reagent may be a proprietary formulation containing the DNA intercalating dye propidium iodide and RNAse A. The multiparametric fluorescent detection of individual cells may be performed by a cell analyzer, a microcapillary flow cytometer equipped with a 532-nm laser, a forward scatter and two fluorescence (YLW 576/26, RED 680/30) detectors. Data acquisition and analysis of count & viability, Annexin V & dead cell, and caspase-3/7 assays may be done by analysis software. Post-acquisition analysis of cell cycle data may be performed using software (e.g., FlowJo 7.6.5).
# Table 5 is a cell cycle analysis of U-87 MG cells after 72 hour treatment with 25 nM docetaxel. At the end of 72 hour treatment, cells may be harvested and cell cycle may be determined by incubating the cells in a cell cycle reagent and following the manufacturer's protocol. Data represent the mean±SD of three independent biological replicates (*p<0.1).
# U-87 MG cells [5] = assay: Caspase-3/7 activation in U-87 MG cells; format: cell-based; details: 25 nM, 72 hours, vs vehicle control
# Description: as §1
# U-87 MG cells harvested by trypsinization may be pooled with media plus washes and pelleted by centrifugation. The cells may be re-suspended in complete media diluted 1:10 with PBS (1% FBS/PBS). […]
# Cleavage by active caspase-3/7 releases the dye within the cell and results in translocation to the nucleus, binding to DNA and high fluorescence. […] A cell cycle reagent may be a proprietary formulation containing the DNA intercalating dye propidium iodide and RNAse A. The multiparametric fluorescent detection of individual cells may be performed by a cell analyzer, a microcapillary flow cytometer equipped with a 532-nm laser, a forward scatter and two fluorescence (YLW 576/26, RED 680/30) detectors. […]
# U-87 MG cells [6] = assay: DNA fragmentation of U-87 MG cells (APO-BRDU, flow cytometry); format: cell-based; details: 25 nM, 72 hour treatment; percentage of the cell population, mean±SD, n=2
# Description: as §1
# For analysis of DNA fragmentation, U-87 MG cells may be harvested by trypsinization, collected by centrifugation, fixed in 2% formaldehyde in PBS, and permeabilized in 70% EtOH at −20° C. DNA strand breaks in cells undergoing apoptosis may be indirectly labeled with bromodeoxyuridine by terminal transferase and detected by FITC-conjugated monoclonal antibody to bromodeoxyuridine using the APO-BRDU kit according to manufacturer's protocol. Cells may be counterstained with 5 μg/ml propidium iodide containing RNase A for detection of total DNA, and two-color analysis of DNA strand breaks and cell cycle may be achieved by flow cytometry. Flow cytometric analysis may be performed on a BD LSR II Flow Cytometer equipped with three excitation lasers (405-nm, 488-nm and 633-nm). For DNA fragmentation analysis, FITC and PI signals may be collected by 488-nm octagon detection array with no color compensation. 10,000 events gated on single cell populations may be collected and post-acquisition analysis may be performed using software FlowJo 7.6.5.
# Table 6 is an analysis of DNA fragmentation of U-87 MG cells after 72 hour treatment with 25 nM docetaxel. DNA fragmentation may be determined by flow cytometry as described above.
structure (smiles),measurement,setting,value
"CC(=O)O[C@@]12CO[C@@H]1C[C@H](O)[C@@]1(C)C(=O)[C@H](O)C3=C(C)[C@@H](OC(=O)[C@H](O)[C@@H](NC(=O)OC(C)(C)C)c4ccccc4)C[C@@](O)([C@@H](OC(=O)c4ccccc4)[C@H]21)C3(C)C [Docetaxel, docetaxel]",decrease in U-87 MG cell number,U-87 MG cells [1],20%
same,decrease in U-87 MG cell number,U-87 MG cells [1]; listed as docetaxel,approximately 20%
same,"arresting cell growth in U-87 MG cells, compared with temozolomide",U-87 MG cells [2],as effective as temozolomide
same,Annexin V positive cells,U-87 MG cells [3],significant increase
same,G1,U-87 MG cells [4],39.7 ± 4.8*
same,G2/M,U-87 MG cells [4],22.1 ± 4.4
same,S,U-87 MG cells [4],26.7 ± 1.7*
same,Sub-G0,U-87 MG cells [4],9.9 ± 3.9*
same,caspase-3/7 activation,U-87 MG cells [5],significant increase
same,DNA Frag (+) Apoptotic bodies (upper left quadrant),U-87 MG cells [6],0.10 ± 0.0%
same,DNA Frag (+) Cells (upper right quadrant),U-87 MG cells [6],2.11 ± 1.69%
same,DNA Frag (−) Apoptotic bodies (lower left quadrant),U-87 MG cells [6],3.57 ± 1.65%
same,DNA Frag (−) Cells (lower right quadrant),U-87 MG cells [6],94.2 ± 0.07%
